For one series, the system named is HFF cells. The class given is cell-based. Conditions: 0.19 and 0.38 M EG, 48 h incubation. The method, then: (§1) Human foreskin fibroblasts (HFF), and mouse embryonic fibroblasts (MEF) were obtained from the American Type Cell Collection (Manasas, Va.). HFF and MEF cells were cultured in DMEM basal media supplemented with 15% fetal bovine serum (FBS), and 1% penicillin/streptomycin. Cells were incubated in a 5% CO2 atmosphere at 37° C. until they reached 80-90% confluence. Cells were then washed with phosphate buffer saline (PBS) and trypsinized with 0.25% Trypsin-EDTA for 5 min at 37° C. For cytotoxicity measurements and encapsulation experiments, cells were centrifuged at 800 rpm for 5 min. The supernatant was removed and the pelleted cells were suspended in their own growth media at a concentration of about 500,000 cells/ml.
(§2) Membrane integrity of the encapsulated cells in silica and SPEG gels was measured using a live-dead fluorescence assay containing Hoechst (H) and Propidium Iodide (PI) fluorescent dyes. A Nikon Eclipse T200 microscope (Nikon Instruments Inc., Melville, N.Y.) equipped with 10×, and 20× objectives were used to collect the bright field and fluorescent images.
(§3) MA of the encapsulated cells was measured with alamar blue (AB) fluorescence. For fluorescence measurements a SpectraMAX Gemini microplate reader (Molecular Devices Inc, Sunnyvale, Calif.) was used. The samples were excited at 540 nm and their emission was measured at 590 nm. LDH assay was performed 24 h after encapsulation of the cells. The assay was performed using a commercially available kit (Roche Applied Science, Indianapolis, Ind.). The levels of extracellular LDH activity were determined using a UV-vis SpectraMAX microplate reader (Molecular Devices, Sunnyvale, Calif.) by absorbance at 492 nm.
(§4) During the encapsulation process, mammalian cells were exposed to individual and aggregated SNPs in the surrounding solutions as gel formation proceeds. SNPs can be mildly cytotoxic. The toxicity of the encapsulation process was analyzed by incubating mammalian cells in 0.01 and 0.03 M SNP solutions. These were the concentrations used in the gels. After 24 h of incubation in the presence of SNPs, the cell membrane integrity and MA was measured.
(§5) Another factor for cytotoxicity is the formation of cytotoxic by-products such as EG during the hydrolysis reaction. HFF and MEF cells were incubated with 0.19 and 0.38 M EG to test for cytotoxicity. The concentrations of EG used in these experiments were based on the stoichiometric reaction of 10% (v/v) THEOS assuming a complete reaction. […] FIG. 6 illustrates cytotoxicity of SNPs and EG on: (A) HFF, (B) MEF.

In the next series the test system is MEF cells. The class given is cell-based. Conditions: 0.19 and 0.38 M EG, 48 h incubation. The method, then: as §1, §2, §3, §4, §5

Here are results for one compound from patent publication US9427408B2, “Silica-matrix forming compositions, materials formed therefrom, and methods of using the same” (priority 2011, dated 2016).

`OCCO` [EG, ethylene glycol]: in the series with HFF cells, the cell membrane damage entry is on record as “did not cause any cell membrane damage” and the “effect on MA of the cells” value is reported as “nor had any effects on the MA”. Besides, in the series on MEF cells, the cell membrane damage result is “did not cause any cell membrane damage” and the “effect on MA of the cells” value is on record as “nor had any effects on the MA”.
